Source: ChEMBL document CHEMBL2346639, “A new dehydroabietic acid-based arylamine fluorescent probe: Synthesis, structure analysis and in vitro biodiagnose function” (Bioorg Med Chem Lett, 2013)

Assays:
[1] = Solubility of the compound in water; format: physicochemical
[2] = system: SMMC-7721; test: Cellular uptake in human SMMC7721 cells after 4 hrs by fluorescence microscopic analysis; format: ADME, cell-based; conditions: smmc-7721, 4 h
[3] = Photostability of the compound in dichloromethane at 1 x 10^-6 M measured after UV-irradiation by fluorescence spectra analysis; format: physicochemical; conditions: 1 µM
[4] = Photostability of the compound in methanol at 1 x 10^-6 M measured after UV-irradiation by fluorescence spectra analysis; format: physicochemical; conditions: 1 µM
[5] = Photostability of the compound in water at 10 uM measured 30 mins after UV-irradiation by fluorescence spectra analysis; format: physicochemical; conditions: buffer, 0.5 h
[6] = Cellular uptake in human SMMC7721 cells cytoplasm after 4 hrs by fluorescence microscopic analysis; format: ADME, cell-based; conditions: smmc-7721, 4 h
[7] = Cytotoxicity against human SGC7901 cells assessed as cell survival at 1 uM after 24 hrs by MTT assay relative to control; format: cell-based; conditions: SGC-7901 cells, read-out: Survival
[8] = Cellular uptake in human A549 cells cytoplasm after 4 hrs by fluorescence microscopic analysis; format: ADME, cell-based; conditions: a549, 4 h
[9] = system: A549; test: Cytotoxicity against human A549 cells assessed as effect on cell survival at 5 to 25 uM after 24 hrs by MTT assay; format: cell-based; conditions: a549, 24 h
[10] = Cytotoxicity against human A549 cells assessed as cell survival at 1 uM after 24 hrs by MTT assay relative to control; format: cell-based; conditions: read-out: Survival
[11] = Photostability of the compound in DMSO at 1 x 10^-6 M measured after UV-irradiation by fluorescence spectra analysis; format: physicochemical; conditions: 1 µM
[12] = Photostability of the compound in water at 1 x 10^-6 M measured after UV-irradiation by fluorescence spectra analysis; format: physicochemical; conditions: buffer, 1 µM
[13] = Cellular uptake in human SGC7901 cells cytoplasm after 4 hrs by fluorescence microscopic analysis; format: ADME, cell-based; conditions: sgc-7901, 4 h
[14] = Cytotoxicity against human SMMC7721 cells assessed as cell survival at 1 uM after 24 hrs by MTT assay relative to control; format: cell-based; conditions: SMMC-7721 cells, read-out: Survival
[15] = Cytotoxicity against human HeLa cells assessed as cell survival at 1 uM after 24 hrs by MTT assay relative to control; format: cell-based; conditions: read-out: Survival
[16] = Cellular uptake in human HeLa cells cytoplasm after 4 hrs by fluorescence microscopic analysis; format: ADME, cell-based
[17] = system: HeLa; test: Cellular uptake in human HeLa cells after 4 hrs by fluorescence microscopic analysis; format: ADME, cell-based
[18] = system: SGC-7901; test: Cellular uptake in human SGC7901 cells after 4 hrs by fluorescence microscopic analysis; format: ADME, cell-based; conditions: sgc-7901, 4 h
[19] = system: A549; test: Cellular uptake in human A549 cells after 4 hrs by fluorescence microscopic analysis; format: ADME, cell-based; conditions: a549, 4 h

Q: Which results are given for `COC(=O)[C@]1(C)CCC[C@]2(C)c3ccc(Nc4cccc5ccccc45)cc3CC[C@@H]12`?
A: solubility [1]: > 15 µM; Drug uptake [2]: Active; Stability [3]: Unstable; Stability [4]: Unstable; Stability [5]: Stable; Drug uptake [6]: Active; viability at 24 h, 1 µM [7]: 94.5%; Drug uptake [8]: Active; Activity [9]: Non-toxic; viability at 24 h, 1 µM [10]: 93.1%; Stability [11]: Unstable; Stability [12]: Stable; Drug uptake [13]: Active; viability at 24 h, 1 µM [14]: 96%; viability at 24 h, 1 µM [15]: 97.3%; Drug uptake [16]: Active; Drug uptake [17]: Active; Drug uptake [18]: Active; Drug uptake [19]: Active
